In patent US7160874B2, “Phenylalanine derivatives” (Ajinomoto Co., Inc., priority 1999, dated 2007):

Tests used:
[1] = target: T1, integrin α4β1 (Homo sapiens, UniProt P05556+P13612); assay: VCAM antagonist activity (VCAM-1/α4β1 binding assay); assay type: cell-based; conditions: Jurkat cells binding to VCAM-1; read-out: VCAM antagonistic activity (IC50) α4β1
T1 construct: cell strain Jurkat (ATCC TIB-152) of human T cells, known to express integrin α4β1; host or cells: Jurkat (human T cell line)
Procedure, shortened: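 Plates coated overnight at 4° C with recombinant human VCAM-1 (500 ng/ml, pH 9.6) and blocked. Calcein-AM-labelled Jurkat cells (α4β1) added with compound in HEPES/DMEM/0.1% BSA, 30 min at room temperature; unbound cells shaken off, bound fluorescence read at 485/535 nm. IC50 from binding relative to compound-free wells.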

[2] = target: T2, integrin α4β7 (Homo sapiens, UniProt P13612+P26010); assay: VCAM antagonistic activity (VCAM-1/α4β7 binding assay); assay type: cell-based; conditions: RPMI-8866 cells binding to VCAM-1; read-out: VCAM antagonistic activity (IC50) α4β7
T2 construct: lymphoma cell strain RPMI-8866 of human B cells, known to express integrin α4β7; endogenous in cells; host or cells: RPMI-8866 (human B lymphoma cell line)
T2 sequence (P13612 34-1032): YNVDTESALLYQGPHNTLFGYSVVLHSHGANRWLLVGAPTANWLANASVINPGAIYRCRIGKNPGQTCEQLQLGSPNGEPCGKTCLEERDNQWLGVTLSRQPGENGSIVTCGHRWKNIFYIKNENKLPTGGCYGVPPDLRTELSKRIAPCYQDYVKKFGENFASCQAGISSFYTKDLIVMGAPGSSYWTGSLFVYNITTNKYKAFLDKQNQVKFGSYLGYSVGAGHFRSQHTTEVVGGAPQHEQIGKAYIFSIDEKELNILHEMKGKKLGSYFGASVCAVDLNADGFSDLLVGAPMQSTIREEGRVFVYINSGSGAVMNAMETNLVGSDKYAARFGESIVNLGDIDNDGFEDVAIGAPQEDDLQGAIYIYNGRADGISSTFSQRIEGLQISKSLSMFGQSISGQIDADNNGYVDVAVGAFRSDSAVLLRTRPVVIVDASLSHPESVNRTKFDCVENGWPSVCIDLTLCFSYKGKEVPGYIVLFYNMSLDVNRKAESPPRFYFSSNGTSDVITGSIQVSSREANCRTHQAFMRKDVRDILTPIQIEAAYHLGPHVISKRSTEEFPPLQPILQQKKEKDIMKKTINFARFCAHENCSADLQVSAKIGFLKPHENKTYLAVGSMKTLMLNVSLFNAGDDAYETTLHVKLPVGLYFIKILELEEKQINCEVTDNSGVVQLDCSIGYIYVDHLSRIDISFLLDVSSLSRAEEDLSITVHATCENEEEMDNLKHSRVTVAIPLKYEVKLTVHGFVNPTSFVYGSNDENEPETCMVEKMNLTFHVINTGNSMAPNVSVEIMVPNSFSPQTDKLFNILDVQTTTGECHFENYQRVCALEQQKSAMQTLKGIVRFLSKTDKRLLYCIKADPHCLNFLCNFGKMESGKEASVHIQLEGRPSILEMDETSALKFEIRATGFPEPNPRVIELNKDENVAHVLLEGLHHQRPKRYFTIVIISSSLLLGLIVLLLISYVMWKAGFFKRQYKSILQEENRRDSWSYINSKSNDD
T2 sequence (P26010 20-798): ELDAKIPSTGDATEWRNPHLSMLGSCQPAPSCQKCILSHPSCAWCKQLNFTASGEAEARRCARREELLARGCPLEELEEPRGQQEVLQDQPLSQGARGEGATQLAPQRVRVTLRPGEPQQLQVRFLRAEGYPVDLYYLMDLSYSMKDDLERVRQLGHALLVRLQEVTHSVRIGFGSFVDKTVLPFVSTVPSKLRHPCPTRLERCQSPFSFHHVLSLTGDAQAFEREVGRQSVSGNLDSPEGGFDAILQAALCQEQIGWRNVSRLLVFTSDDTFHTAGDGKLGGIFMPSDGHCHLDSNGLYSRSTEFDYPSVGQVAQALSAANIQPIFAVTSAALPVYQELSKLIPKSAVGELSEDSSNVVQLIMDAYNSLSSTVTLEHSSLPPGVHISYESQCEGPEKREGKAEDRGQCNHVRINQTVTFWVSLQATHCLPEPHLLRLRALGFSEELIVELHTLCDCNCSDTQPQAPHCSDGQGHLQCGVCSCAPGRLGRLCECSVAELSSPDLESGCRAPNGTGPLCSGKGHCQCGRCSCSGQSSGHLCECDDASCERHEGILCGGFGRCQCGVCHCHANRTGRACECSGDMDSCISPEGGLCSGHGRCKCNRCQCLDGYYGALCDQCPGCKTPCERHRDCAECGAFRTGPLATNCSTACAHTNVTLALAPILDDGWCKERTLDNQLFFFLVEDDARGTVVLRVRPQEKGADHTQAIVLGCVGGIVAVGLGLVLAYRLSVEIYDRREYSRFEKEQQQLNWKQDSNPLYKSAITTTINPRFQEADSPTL
Procedure, shortened: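 Calcein-AM-labelled human B-lymphoma RPMI-8866 cells bound to plate-coated recombinant human VCAM-1 in HEPES/DMEM/0.1% BSA with 4 mM MnCl2, with compound, 30 min at room temperature. Unbound cells removed by shaking; bound-cell fluorescence (ex 485/em 535 nm) versus compound-free wells gave IC50, binned.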

T1 sequence (P05556 21-798, one chain of several): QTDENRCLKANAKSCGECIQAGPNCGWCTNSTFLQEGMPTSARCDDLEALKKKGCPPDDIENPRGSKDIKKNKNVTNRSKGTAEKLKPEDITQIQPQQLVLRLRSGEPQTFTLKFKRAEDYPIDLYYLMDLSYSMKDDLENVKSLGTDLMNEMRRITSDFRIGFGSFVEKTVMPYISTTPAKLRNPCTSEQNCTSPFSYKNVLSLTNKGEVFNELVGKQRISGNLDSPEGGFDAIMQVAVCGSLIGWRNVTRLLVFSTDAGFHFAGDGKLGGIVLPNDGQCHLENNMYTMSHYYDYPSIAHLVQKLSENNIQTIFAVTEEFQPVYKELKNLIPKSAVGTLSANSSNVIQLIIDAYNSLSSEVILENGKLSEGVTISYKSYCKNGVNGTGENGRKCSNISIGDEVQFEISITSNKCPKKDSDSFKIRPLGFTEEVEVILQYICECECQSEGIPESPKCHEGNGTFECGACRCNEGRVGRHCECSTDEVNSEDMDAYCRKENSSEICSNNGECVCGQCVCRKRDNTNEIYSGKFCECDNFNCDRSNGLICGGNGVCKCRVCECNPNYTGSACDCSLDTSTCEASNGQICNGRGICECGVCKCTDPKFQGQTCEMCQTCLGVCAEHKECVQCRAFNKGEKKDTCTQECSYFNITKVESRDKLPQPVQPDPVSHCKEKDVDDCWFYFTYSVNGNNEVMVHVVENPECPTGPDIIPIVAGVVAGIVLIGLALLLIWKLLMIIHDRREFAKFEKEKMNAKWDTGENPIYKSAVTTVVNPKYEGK

| Compound | IC50 [1] [nM] | IC50 [2] [nM] |
| --- | --- | --- |
| CCC(CC)(C(=O)N[C@@H](Cc1ccc(NC(=O)c2c(F)cccc2C(F)(F)F)cc1)C(=O)O)C(=O)N1CCCC1 [Example 92, N-(2-pyrrolidine-1-ylcarbonyl-2-ethyl-butanoyl)-4-({[2-fluoro-6-(trifluoromethyl)phenyl]carbonyl}amino)-L-phenylalanine] | 20 to 100 | < 20 |
| CCC(CC)(C(=O)N[C@@H](Cc1ccc(NC(=O)c2snnc2-c2ccccc2)cc1)C(=O)O)C(=O)N1CCCC1 [Example 93] | 100 to 2000 | < 20 |
| CCC(CC)(C(=O)N[C@@H](Cc1ccc(NC(=O)c2nc(SC)ncc2Cl)cc1)C(=O)O)C(=O)N1CCCC1 [Example 94, N-[2-(pyrrolidine-1-ylcarbonyl)-2-ethyl-butanoyl]-4-({[5-chloro-2-(methylthio)pyrimidine-4-yl]carbonyl}amino)-L-phenylalanine] | 20 to 100 | < 20 |
| CCC(CC)(C(=O)N[C@@H](Cc1ccc(NC(=O)c2cc(F)c(F)cc2Cl)cc1)C(=O)O)C(=O)N1CCCC1 [Example 95] | 20 to 100 | < 20 |
| CCC(CC)(C(=O)N[C@@H](Cc1ccc(NC(=O)c2cc(Br)ccc2Cl)cc1)C(=O)O)C(=O)N1CCCC1 [Example 96] | 20 to 100 | < 20 |
| CCC(CC)(C(=O)N[C@@H](Cc1ccc(NC(=O)c2ccccc2[N+](=O)[O-])cc1)C(=O)O)C(=O)N1CCCC1 [Example 97] | 20 to 100 | < 20 |
| CCC(CC)(C(=O)N[C@@H](Cc1ccc(NC(=O)c2cc(Br)ccc2Br)cc1)C(=O)O)C(=O)N1CCCC1 [Example 98] | 20 to 100 | < 20 |
| CCC(CC)(C(=O)N[C@@H](Cc1ccc(NC(=O)c2cc(OC)ccc2Br)cc1)C(=O)O)C(=O)N1CCCC1 [Example 99] | 20 to 100 | 20 to 100 |
| CCC(CC)(C(=O)N[C@@H](Cc1ccc(-n2c(=O)c3ccccc3n(Cc3ccc4ccccc4c3)c2=O)cc1)C(=O)O)C(=O)N1CCCC1 [Example 100] | 100 to 2000 | 20 to 100 |
| CCC(CC)(C(=O)N[C@@H](Cc1ccc(-n2c(=O)c3ccccc3n(CC=Cc3ccccc3)c2=O)cc1)C(=O)O)C(=O)N1CCCC1 [Example 101] | 100 to 2000 | 20 to 100 |
| C#CCn1c(=O)n(-c2ccc(C[C@H](NC(=O)C(CC)(CC)C(=O)N3CCCC3)C(=O)O)cc2)c(=O)c2ccccc21 [Example 102] | 100 to 2000 | < 20 |
| CCC(CC)(C(=O)N[C@@H](Cc1ccc(-n2c(=O)c3ccccc3n(CC(=O)OC)c2=O)cc1)C(=O)O)C(=O)N1CCCC1 [Example 103] | 100 to 2000 | 20 to 100 |
| CCC(CC)(C(=O)N[C@@H](Cc1ccc(-c2c(OC)cccc2OC)cc1)C(=O)O)C(=O)N(C)C [Example 104] | 100 to 2000 | 20 to 100 |
| COc1cccc(OC)c1-c1ccc(C[C@H](NC(=O)C(C)(C)C(=O)N(C)C)C(=O)O)cc1 [Example 105, N-[3-(dimethylamino)-2,2-dimethyl-3-oxopropanoyl]-4-(2,6-dimethoxyphenyl)-L-phenylalanine] | 100 to 2000 | 20 to 100 |
| O=CN1CCN(C(=O)C2(C(=O)N[C@@H](Cc3ccc(OCc4c(Cl)cccc4Cl)cc3)C(=O)O)CCC2)CC1 [Example 463] | 100 to 2000 | 100 to 2000 |
| CCC(CC)(C(=O)N[C@@H](Cc1ccc(OCc2c(Cl)cccc2Cl)cc1)C(=O)O)C(=O)N1CCN(C(C)=O)CC1 [Example 464] | 100 to 2000 | 20 to 100 |
| CCC(CC)(C(=O)NC(Cc1ccc(OCc2c(Cl)cccc2Cl)cc1)C(=O)O)C(=O)N1CC2CC1CN2C(C)=O (centres unmarked) [Example 466] | 20 to 100 | < 20 |
| O=C(O)[C@H](Cc1ccc(OCc2c(Cl)cccc2Cl)cc1)NC(=O)C1(C(=O)N2CC[C@@H](O)C2)CCOCC1 [Example 467] | 100 to 2000 | < 20 |
| CN(C)C(=O)C1(C(=O)N[C@@H](Cc2ccc(OCc3c(Cl)cccc3Cl)cc2)C(=O)O)CCOCC1 [Example 468] | 100 to 2000 | < 20 |
| CC1(C)CC2CC(C)(CN2C(=O)C2(C(=O)NC(Cc3ccc(OCc4c(Cl)cccc4Cl)cc3)C(=O)O)CCOCC2)C1 (centres unmarked) [Example 472] | 2000 to 10000 | 100 to 2000 |
| CCC(CC)(C(=O)N[C@@H](Cc1ccc(NC(=O)c2nc(SC)ncc2Br)cc1)C(=O)O)C(=O)N1CCCC1 [Example 477] | 20 to 100 | < 20 |
| CCC(CC)(C(=O)N[C@@H](Cc1ccc(NC(=O)c2nc([S+](C)[O-])ncc2Cl)cc1)C(=O)O)C(=O)N1CCCC1 (stereo partly drawn) [Example 478, N-[2-(pyrrolidine-1-ylcarbonyl)-2-ethyl-butanoyl]-4-({[5-chloro-2-(methylsulfinyl)pyrimidine-4-yl]carbonyl}amino)-L-phenyl-alanine] | 20 to 100 | < 20 |
| CCC(CC)(C(=O)N[C@@H](Cc1ccc(NC(=O)c2nc(S(C)(=O)=O)ncc2Cl)cc1)C(=O)O)C(=O)N1CCCC1 [Example 479, N-[2-(pyrrolidine-1-ylcarbonyl)-2-ethyl-butanoyl)-4-({[5-chloro-2-(methylsulfonyl)pyrimidine-4-yl]carbonyl}-amino)-L-phenyl-alanine] | 20 to 100 | < 20 |
| CCC(CC)(C(=O)N[C@@H](Cc1ccc(NC(=O)c2nc(NCc3ccc(OC)cc3)ncc2Cl)cc1)C(=O)O)C(=O)N1CCCC1 [Example 480, N-[2-(pyrrolidine-1-ylcarbonyl)-2-ethyl-butanoyl]-4-[({5-chloro-2-[(4-methoxybenzyl)amino]pyrimidine-4-yl}carbonyl)amino]-L-phenylalanine] | 20 to 100 | < 20 |
| CCC(CC)(C(=O)N[C@@H](Cc1ccc(NC(=O)c2nc(N3CCCC3)ncc2Cl)cc1)C(=O)O)C(=O)N1CCCC1 [Example 481] | 20 to 100 | < 20 |
| CCC(CC)(C(=O)N[C@@H](Cc1ccc(NC(=O)c2nc(N3CCCCC3)ncc2Cl)cc1)C(=O)O)C(=O)N1CCCC1 [Example 482] | 100 to 2000 | < 20 |
| CCCNc1ncc(Cl)c(C(=O)Nc2ccc(C[C@H](NC(=O)C(CC)(CC)C(=O)N3CCCC3)C(=O)O)cc2)n1 [Example 483] | 20 to 100 | < 20 |
| CCC(CC)(C(=O)N[C@@H](Cc1ccc(NC(=O)c2nc(NC)ncc2Cl)cc1)C(=O)O)C(=O)N1CCCC1 [Example 484] | 20 to 100 | < 20 |
